The values below come from patent publication US11873287B2, “Piperidine-2,6-dione derivatives and ulcerative colitis treating” (TIANJIN HEMAY PHARMACEUTICAL SCI-TECH CO., LTD, priority 2016, dated 2024).

Molecules are shown by their SMILES.

In series [1] the test system is ICR mice. Kind of series: Acute toxicity experiment of single oral administration in mice. Type of series: in vivo. Conditions: 1000 mg/Kg single oral dose. In outline: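 Fasted ICR mice (19–21 g, 3 male and 3 female per group) received a single oral dose of 1000 mg/Kg, given first to one of each sex, then to the remaining four. Acute signs were scored over the first 15 min, then state, deaths and daily body weight over 7 days.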

Series [2] concerns DSS-Induced inflammatory Bowel Disease Models in Mice. Description: DSS-induced inflammatory bowel disease model in mice (Biological Example 5, 1.3% DSS). As to conditions: 30 mg/Kg i.g. Q.D, 1.3% DSS days 0-5; for inhibition in vivo at 30 mg/kg: Mus musculus, po, read-out: Inhibitory Rate of Colonic Reduction. It counts as in vivo, C57BL/6 mice. The method, then: 40 healthy female C57BL/6 mice having weight of 16-19 g were randomly divided into 4 groups in accordance with weight. There were 10 mice in each group (see Table 6 below). The first day of the experiment was recorded as Day 0. The administration regimen and induction regimen were detailed in Table 6. The change in weight of experimental animals was recorded every day. […] Samples of animal colonic tissues were obtained to measure the length. One-way ANOVA analysis of mice weights was performed by SPSS22. Statistical analyses between groups were performed. Mann-Whitney U non-parametric test was performed on the length of colon.
The experimental method used in the present biological example is identical to those in Biological Example 3.
One-way ANOVA analysis of mice body weights and colonic weights per length was performed by SPSS22. Statistical analyses between groups were performed.
Calculation Formula of Inhibitory Rate of Colonic Reduction: (Length of Colon in Administration Group−Length of Colon in Model Group)/(Length of Colon in Blank Group−Length of Colon in Model Group)

Regarding `CS(=O)(=O)CCN1C(=O)CCC(N2C(=O)c3cccc(N)c3C2=O)C1=O` (stereo not drawn) [Example 13, 4-amino-2-(1-(2-methylsulfonylethyl)-2,6-dioxopiperidin-3-yl)isoindolin-1,3-dione], the “Daily Body Weight of Tested Female Mice (Mean ± SD)” value in series [1] (Day 1) was 18.8 ± 1.1 g; in series [1] (Day 2), 21.3 ± 0.3 g; in series [1] (Day 3), 21.8 ± 0.4 g; in series [1] (Day 4), 21.8 ± 0.4 g; in series [1] (Day 5) it was 23.0 ± 0.5 g; in series [1] (Day 6) it was 23.2 ± 0.9 g. Also, in series [1] (Day 7), the “Daily Body Weight of Tested Female Mice (Mean ± SD)” value was 23.6 ± 0.9 g. Further, the “Daily Body Weight of Tested Male Mice (Mean ± SD)” value in series [1] (Day 1) amounted to 19.6 ± 0.7 g; in series [1] (Day 2) it was 23.1 ± 0.6 g; in series [1] (Day 3), 24.4 ± 0.9 g; in series [1] (Day 4) it was 24.4 ± 0.9 g; in series [1] (Day 5) it was 26.5 ± 0.5 g; in series [1] (Day 6), 28.3 ± 1.3 g. Also, the “Daily Body Weight of Tested Male Mice (Mean ± SD)” value in series [1] (Day 7) worked out at 28.4 ± 0.8 g. The “Summary of toxic response of tested animals in 7 Days” value in series [1] (Female) and in series [1] (Male) was “Abnormality was not observed in 7 days of the test” in each case. The “Length (cm, Mean ± SD) of colon” value in series [2] was determined as 6.9 ± 0.4 cm. For the same molecule, the inhibition in vivo at 30 mg/kg in series [2] turned out to be 100%.
On to `C[S+]([O-])CCN1C(=O)CCC(N2C(=O)c3cccc(N)c3C2=O)C1=O` (stereo not drawn) [Example 12, 4-amino-2-(1-(2-methylsulfinylethyl)-2,6-dioxopiperidin-3-yl)isoindolin-1,3-dione], for which the “Daily Body Weight of Tested Female Mice (Mean ± SD)” value in series [1] (Day 1) is listed as 18.7 ± 0.7 g; in series [1] (Day 2) it was 21.8 ± 0.6 g; in series [1] (Day 3), 22.6 ± 0.1 g; in series [1] (Day 4), 22.6 ± 0.0 g; in series [1] (Day 5), 23.7 ± 0.6 g; in series [1] (Day 6), 25.3 ± 1.0 g. In addition, the “Daily Body Weight of Tested Female Mice (Mean ± SD)” value in series [1] (Day 7) is listed as 25.7 ± 1.6 g. Moreover, the “Daily Body Weight of Tested Male Mice (Mean ± SD)” value in series [1] (Day 1) is given as 18.5 ± 0.2 g; in series [1] (Day 2), 24.3 ± 0.6 g; in series [1] (Day 3) it was 24.9 ± 0.1 g; in series [1] (Day 4), 24.9 ± 0.1 g; in series [1] (Day 5), 26.1 ± 0.7 g; in series [1] (Day 6) it was 27.8 ± 0.7 g. Besides, the “Daily Body Weight of Tested Male Mice (Mean ± SD)” value in series [1] (Day 7) came out at 28.5 ± 0.7 g. Further, the “Summary of toxic response of tested animals in 7 Days” value in series [1] (Female) and in series [1] (Male) was “Abnormality was not observed in 7 days of the test” throughout. Besides, in series [2], the “Length (cm, Mean ± SD) of colon” value came out at 7.0 ± 0.5 cm. Moreover, the inhibition in vivo at 30 mg/kg in series [2] turned out to be 109%.
